PMC7077990 (eLife, 2020)

What was measured:
[1] = molecular target: T1, mitochondrial pyruvate carrier MPC (Mus musculus, UniProt P63030+Q9D023); experiment: mitochondrial pyruvate uptake in intact astrocytes, mito-PyronicSF fluorescence; assay type: cell-based; conditions: 3 mM extracellular pyruvate; KRH buffer pH 7.4; 22–25°C
T1 construct: gene Mpc1; native carrier in intact cultured cortical astrocytes; read out as mitochondrial pyruvate uptake with mito-PyronicSF; subunit composition not determined
T1 sequence (P63030 2-109): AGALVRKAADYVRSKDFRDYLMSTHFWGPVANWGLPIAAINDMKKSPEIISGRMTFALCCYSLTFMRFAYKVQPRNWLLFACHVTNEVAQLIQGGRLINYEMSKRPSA
T1 sequence (Q9D023 1-127): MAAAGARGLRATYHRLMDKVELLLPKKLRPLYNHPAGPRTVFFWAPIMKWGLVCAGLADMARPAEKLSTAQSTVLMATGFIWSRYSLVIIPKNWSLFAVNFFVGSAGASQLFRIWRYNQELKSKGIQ

[2] = molecular target: T1, mitochondrial pyruvate carrier MPC; experiment: as above; assay type: cell-based; conditions: 3 mM extracellular pyruvate; KRH buffer pH 7.4; 22–25°C; remark: listed apart in the source

SMILES | % uptake inhibition at 10 μM [1] [%] | % uptake inhibition at 30 μM [2] [%]
N#C/C(=C\c1cn(-c2ccccc2)c2ccccc12)C(=O)O [UK-5099] | 69 | 
CN(CCOc1ccc(CC2SC(=O)NC2=O)cc1)c1ccccn1 (centres unmarked) [rosiglitazone] |  | 67
